Experimental data published in PubChem BioAssay AID330 (DTP/NCI, 2004).
“And” between values parts separate entries of the source, which are not always exact repeats. Equal values may be shown once. Inconclusive results and toxic doses are left out. How the source made its calls: active means survival T/C of 150% or more; inactive means T/C below 125% in these data.

Test system: P388 leukemia ip, CD2F1 mice, survival T/C
Test: NCI In Vivo Anticancer Drug Screen. Data for tumor model P388 Leukemia (intraperitoneal) in CD2F1 (CDF1) mice
Conditions: endpoint: median survival time, higher = longer survival
How it was run: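 Mice carrying the transplanted tumor received test compound or vehicle. Survival was recorded in each group, and the value is the treated-group measurement divided by that of the vehicle-treated control group.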

[1] = dose: 50.0 mg/kg/injection, schedule: Q01DX009 (ip), vehicle: saline
[2] = dose: 100.0 mg/kg/injection, schedule: Q01DX009 (ip), vehicle: saline
[3] = dose: 200.0 mg/kg/injection, schedule: Q01DX009 (ip), vehicle: saline
[4] = dose: 25.0 mg/kg/injection, schedule: Q01DX005 (ip), vehicle: saline with Tween-80
[5] = dose: 50.0 mg/kg/injection, schedule: Q01DX005 (ip), vehicle: saline with Tween-80
[6] = dose: 100.0 mg/kg/injection, schedule: Q01DX005 (ip), vehicle: saline with Tween-80
[7] = dose: 200.0 mg/kg/injection, schedule: Q01DX005 (ip), vehicle: saline with Tween-80
[8] = dose: 12.5 mg/kg/injection, schedule: Q01DX005 (ip), vehicle: saline with Tween-80

Measured: T/C

CC1=CCCC(C)(C)C1/C=C(/C#N)C(=O)N=C(N)N (centres undefined)
inactive: [1] 99 % of control | [2] 97 % of control | [3] 99 % of control

O=c1oc(-c2cccc(-c3nc4c(c(=O)o3)CCS4)c2)nc2c1CCS2
inactive: dose: 50.0 mg/kg/injection, schedule: Q01DX005 (ip), vehicle: Klucel (hydroxypropylcellulose) (HPC) 97 % of control | dose: 100.0 mg/kg/injection, schedule: Q01DX005 (ip), vehicle: Klucel (hydroxypropylcellulose) (HPC) 100 % of control | dose: 200.0 mg/kg/injection, schedule: Q01DX005 (ip), vehicle: Klucel (hydroxypropylcellulose) (HPC) 91 % of control

COc1cc2cc(c1Cl)N(C)C(=O)CC(OC(=O)C(C)C)C1(C)OC1C(C)C1CC(O)(NC(=O)O1)C(OC)/C=C/C=C(C)C2 (centres undefined)
inactive: dose: 3.1 micrograms/kg/injection, schedule: Q01DX009 (ip), vehicle: saline + alcohol 114 % of control | dose: 6.2 micrograms/kg/injection, schedule: Q01DX009 (ip), vehicle: saline + alcohol 119 % of control | dose: 6.25 micrograms/kg/injection, schedule: Q01DX009 (ip), vehicle: saline + alcohol 115 % of control | dose: 100.0 micrograms/kg/injection, schedule: Q01DX009 (ip), vehicle: saline + alcohol 106 % of control and 86 % of control | dose: 200.0 micrograms/kg/injection, schedule: Q01DX009 (ip), vehicle: saline + alcohol 94 % of control

Cc1ccc(CSCc2c(CSCc3ccc(C)cc3)c(CSCc3ccc(C)cc3)c(CSCc3ccc(C)cc3)c(CSCc3ccc(C)cc3)c2CSCc2ccc(C)cc2)cc1
inactive: dose: 50.0 mg/kg/injection, schedule: Q01DX009 (ip), vehicle: saline with Tween-80 92 % of control | dose: 100.0 mg/kg/injection, schedule: Q01DX009 (ip), vehicle: saline with Tween-80 97 % of control | dose: 200.0 mg/kg/injection, schedule: Q01DX009 (ip), vehicle: saline with Tween-80 86 % of control

C[N+]1(C)[B]C[N+](C)(C)[B-]1
inactive: dose: 50.0 mg/kg/injection, schedule: Q01DX009 (ip), vehicle: Klucel (hydroxypropylcellulose) (HPC) 92 % of control | dose: 100.0 mg/kg/injection, schedule: Q01DX009 (ip), vehicle: Klucel (hydroxypropylcellulose) (HPC) 105 % of control | dose: 200.0 mg/kg/injection, schedule: Q01DX009 (ip), vehicle: Klucel (hydroxypropylcellulose) (HPC) 103 % of control

O=C(c1ccccc1)C(Cl)C(Cl)c1ccccc1 (centres undefined)
inactive: [4] 102 % of control | [5] 105 % of control | [6] 101 % of control | [7] 100 % of control

CCCCCCN(CCCCCC)C(=N)c1ccnc2ccccc12
inactive: dose: 12.5 mg/kg/injection, schedule: Q01DX005 (ip), vehicle: saline 92 % of control | dose: 25.0 mg/kg/injection, schedule: Q01DX005 (ip), vehicle: saline 100 % of control | dose: 50.0 mg/kg/injection, schedule: Q01DX005 (ip), vehicle: saline 87 % of control and 94 % of control

CCOC(=O)N1CCc2cc(OC)c(O)cc2C1CC1=CC(=O)C(OC)=CC1=O (centres undefined)
inactive: dose: 100.0 mg/kg/injection, schedule: Q04DX002 (ip), vehicle: saline with Tween-80 102 % of control | dose: 200.0 mg/kg/injection, schedule: Q04DX002 (ip), vehicle: saline with Tween-80 100 % of control | dose: 400.0 mg/kg/injection, schedule: Q04DX002 (ip), vehicle: saline with Tween-80 97 % of control

CC1=NN(C(=O)c2ccc(Cl)cc2)C(=O)C1N=Nc1ccc(S(=O)(=O)Nc2ncccn2)cc1 (centres undefined)
inactive: [5] 94 % of control | [6] 97 % of control | [7] 87 % of control

C[CH](C)[Ge]([CH3])([CH](C)C)[CH](C)C
inactive: [1] 100 % of control | [2] 93 % of control | [3] 110 % of control

CC(C)C(NC(=O)[C@@H](C(C)C)N1C(=O)c2ccccc2C1=O)C(=O)O (some centres undefined)
inactive: [8] 101 % of control | [4] 101 % of control | [5] 99 % of control and 88 % of control | [7] 100 % of control

CC1(C)C(=O)N(Cl)C(=O)N1Cl
inactive: dose: 6.25 mg/kg/injection, schedule: Q01DX005 (ip), vehicle: Klucel (hydroxypropylcellulose) (HPC) 100 % of control and 95 % of control | dose: 6.25 mg/kg/injection, schedule: Q01DX005 (ip), vehicle: saline with Tween-80 92 % of control | dose: 12.5 mg/kg/injection, schedule: Q01DX005 (ip), vehicle: Klucel (hydroxypropylcellulose) (HPC) 102 % of control and 101 % of control | [8] 87 % of control | dose: 16.5 mg/kg/injection, schedule: Q01DX009 (ip), vehicle: saline with Tween-80 104 % of control | dose: 25.0 mg/kg/injection, schedule: Q01DX005 (ip), vehicle: Klucel (hydroxypropylcellulose) (HPC) 106 % of control | [4] 97 % of control

CC(CN(C)C)C(=O)/C=C/c1ccc(Cl)c(Cl)c1 (centres undefined)
inactive: dose: 15.0 mg/kg/injection, schedule: Q01DX005 (ip), vehicle: saline with Tween-80 122 % of control | dose: 30.0 mg/kg/injection, schedule: Q01DX005 (ip), vehicle: saline with Tween-80 116 % of control | dose: 60.0 mg/kg/injection, schedule: Q01DX005 (ip), vehicle: saline with Tween-80 111 % of control and 117 % of control

Cc1cn2ccccc2c[n+]1=O
inactive: dose: 5.0 mg/kg/injection, schedule: Q01DX009 (ip), vehicle: saline sonified 104 % of control | dose: 10.0 mg/kg/injection, schedule: Q01DX009 (ip), vehicle: saline sonified 90 % of control
